From publication PMC3691140, “FGT-1 Is a Mammalian GLUT2-Like Facilitative Glucose Transporter in Caenorhabditis elegans Whose Malfunction Induces Fat Accumulation in Intestinal Cells” (PLoS ONE, 2013)

target: T1, hGLUT1 (Homo sapiens, UniProt P11166); test: 3H-2-DG uptake in cRNA-injected Xenopus oocytes; assay type: cell-based; settings: 10 mM 2-DG, 15 min, pH 7.6; positive control; labelled compound as tracer
T1 construct: gene SLC2A1; pSP64T-hGLUT1, cRNA-injected Xenopus laevis oocytes
T1 sequence (P11166 1-492): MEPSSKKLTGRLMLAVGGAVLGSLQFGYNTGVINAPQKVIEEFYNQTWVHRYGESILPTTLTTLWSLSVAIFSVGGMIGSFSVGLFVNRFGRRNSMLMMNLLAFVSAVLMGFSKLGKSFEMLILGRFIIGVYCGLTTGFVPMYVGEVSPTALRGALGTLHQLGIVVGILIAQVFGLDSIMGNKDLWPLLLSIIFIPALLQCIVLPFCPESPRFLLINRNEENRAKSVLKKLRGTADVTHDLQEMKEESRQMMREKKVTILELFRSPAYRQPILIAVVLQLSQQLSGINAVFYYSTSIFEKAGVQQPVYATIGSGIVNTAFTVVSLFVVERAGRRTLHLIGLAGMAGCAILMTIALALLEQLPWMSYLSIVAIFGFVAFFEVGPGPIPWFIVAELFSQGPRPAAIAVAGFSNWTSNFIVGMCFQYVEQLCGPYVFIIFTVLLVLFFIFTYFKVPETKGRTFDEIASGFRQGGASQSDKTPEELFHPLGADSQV

SMILES | 3H-2-DG uptake in cRNA-injected Xenopus oocytes
OC[C@H]1OC(O)C[C@@H](O)[C@@H]1O (stereo partly drawn) [2-deoxy-D-glucose] | The hGLUT1 cRNA-injected oocytes were used as a positive control

target: T2, FGT-1 (Caenorhabditis elegans, UniProt O44827); test: inhibition of 3H-2-DG uptake in Xenopus oocytes; assay type: cell-based; settings: read-out: % inhibition at 30 mM
T2 construct: gene fdgt-1; full-length fgt-1a cDNA in pSP64T, untagged, cRNA-injected Xenopus laevis oocytes
T2 sequence (O44827 1-492 isoform O44827-2): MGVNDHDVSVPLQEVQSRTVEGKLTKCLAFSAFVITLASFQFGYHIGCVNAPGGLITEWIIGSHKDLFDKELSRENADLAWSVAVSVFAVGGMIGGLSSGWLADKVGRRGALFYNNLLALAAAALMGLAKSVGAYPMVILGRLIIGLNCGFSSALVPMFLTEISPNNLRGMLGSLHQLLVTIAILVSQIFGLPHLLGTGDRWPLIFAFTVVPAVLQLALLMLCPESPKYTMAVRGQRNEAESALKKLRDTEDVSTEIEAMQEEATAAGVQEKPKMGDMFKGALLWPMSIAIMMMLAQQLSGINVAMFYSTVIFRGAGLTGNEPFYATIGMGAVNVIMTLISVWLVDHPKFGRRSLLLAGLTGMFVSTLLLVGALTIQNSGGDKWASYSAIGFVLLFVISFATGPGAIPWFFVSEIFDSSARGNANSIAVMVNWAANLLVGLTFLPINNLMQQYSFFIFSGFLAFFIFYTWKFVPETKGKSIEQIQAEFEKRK

inhibition at 30000 µM | SMILES
79% | OC[C@H]1OC(O)[C@H](O)[C@@H](O)[C@@H]1O (stereo partly drawn) [D-glucose]
77% | CO[C@H]1[C@H](O)[C@@H](CO)OC(O)[C@@H]1O (stereo partly drawn) [3-O-methylglucose]
42% | OCC1(O)OC[C@@H](O)[C@@H](O)[C@@H]1O (stereo partly drawn) [D-fructose]
33% | OC[C@H]1OC(O)[C@H](O)[C@@H](O)[C@H]1O (stereo partly drawn) [D-galactose]
79% | OC[C@H]1OC(O)[C@@H](O)[C@@H](O)[C@@H]1O (stereo partly drawn) [D-mannose]
